Starred links: 1 amine or outer side, 2 acyl side, 3 side chain; linkers in the order of their positions; H or OH if unused. Positions of bridges follow the written chain, without caps; N, C: chain ends. Residues, ends and D or L forms follow the SMILES beside them. *: point of attachment. C18 diacid = O=C(O)CCCCCCCCCCCCCCCCC(=O)*; γGlu = O=C(O)[C@H](CCC(=O)[*:2])N[*:1]; AEEA = NCCOCCOCC(=O)O

The term EC50 denotes the concentration that produces a half-maximal response. A higher EC50 goes with lower potency in that assay.

The assay addresses T1, human natriuretic peptide receptor 2 (hNPR2) (Homo sapiens, UniProt P20594).
T1 construct: expressed in transfected cells; host or cells: HEK293 (ATCC CRL-1573), clone 35, co-transfected with pGloSensor-42F
T1 sequence (P20594 23-1047): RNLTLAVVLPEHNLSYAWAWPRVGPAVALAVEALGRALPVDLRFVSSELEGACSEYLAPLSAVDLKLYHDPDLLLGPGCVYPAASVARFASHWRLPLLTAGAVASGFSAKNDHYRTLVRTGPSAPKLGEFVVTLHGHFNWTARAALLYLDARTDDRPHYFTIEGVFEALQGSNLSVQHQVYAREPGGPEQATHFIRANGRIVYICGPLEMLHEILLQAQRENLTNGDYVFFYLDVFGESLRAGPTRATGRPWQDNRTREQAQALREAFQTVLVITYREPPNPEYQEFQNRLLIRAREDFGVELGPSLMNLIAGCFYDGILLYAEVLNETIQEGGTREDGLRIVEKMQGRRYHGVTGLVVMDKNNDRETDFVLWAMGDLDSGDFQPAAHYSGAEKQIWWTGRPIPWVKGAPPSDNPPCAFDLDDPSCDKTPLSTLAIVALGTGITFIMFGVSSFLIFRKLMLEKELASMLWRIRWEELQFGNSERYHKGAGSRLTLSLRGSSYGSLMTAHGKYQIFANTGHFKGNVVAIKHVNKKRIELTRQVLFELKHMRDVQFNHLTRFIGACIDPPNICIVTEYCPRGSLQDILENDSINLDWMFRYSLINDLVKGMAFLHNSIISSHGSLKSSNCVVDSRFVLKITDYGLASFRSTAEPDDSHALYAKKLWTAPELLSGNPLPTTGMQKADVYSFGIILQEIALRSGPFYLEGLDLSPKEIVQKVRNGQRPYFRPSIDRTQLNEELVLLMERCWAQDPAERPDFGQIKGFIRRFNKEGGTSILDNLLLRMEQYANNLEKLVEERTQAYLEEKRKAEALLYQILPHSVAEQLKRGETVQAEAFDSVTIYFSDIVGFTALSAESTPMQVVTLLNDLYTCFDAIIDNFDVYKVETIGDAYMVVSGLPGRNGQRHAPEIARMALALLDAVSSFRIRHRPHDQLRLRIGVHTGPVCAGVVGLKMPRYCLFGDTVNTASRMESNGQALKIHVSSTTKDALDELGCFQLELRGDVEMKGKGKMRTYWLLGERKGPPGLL
Briefly: In vitro hNPR2 activity assay (cGMP GloSensor reporter, HEK293). The format is cell-based. The note with it: for EC50: 0% HSA, HEK293-hNPR2/GloSensor cells; for hNPR2 0% HSA. [EC50% rel CNP]: potency relative to CNP22 (0065). In short, it runs like this:
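Potency is the EC50 from a four-parameter logistic fit, also expressed relative to the in-plate CNP22 control (×100), with at least two replicates. Compounds (ten concentrations, […], HSA-free diluent with 1% OVA, 0.01% Tween20) were incubated 30 min at 37 °C on HEK293 cells co-expressing hNPR2 and a GloSensor cGMP luciferase. Luminescence detected with Bright-Glo.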

Turning to `CC[C@H](C)[C@@H]1NC(=O)[C@H](CCCNC(=N)N)NC(=O)[C@H](CC(=O)O)NC(=O)[C@H](CC(C)C)NC(=O)[C@H](CCCCN)NC(=O)[C@H](CC(C)C)NC(=O)CNC(=O)[C@H](Cc2ccccc2)NC(=O)[C@@H](NC(=O)CNC(=O)[C@H](CCCCN)NC(=O)[C@H](CO)NC(=O)[C@H](CC(C)C)NC(=O)CNC(=O)[C@H](CCCCN)NC(=O)[C@H](CCC(=O)O)NC(=O)[C@H](CCC(N)=O)NC(=O)[C@H](C)NC(=O)CNC(=O)[C@H](CCCCN)NC(=O)[C@H](Cc2ccc(O)cc2)NC(=O)COCCOCCNC(=O)COCCOCCNC(=O)CC[C@H](NC(=O)CCCCCCCCCCCCCCCCC(=O)O)C(=O)O)CSSC[C@@H](C(=O)O)NC(=O)CNC(=O)[C@H](CC(C)C)NC(=O)CNC(=O)[C@H](CO)NC(=O)[C@H](CC(C)C)NC(=O)[C@H](CO)NC(=O)CNC1=O` [compound 1232] ({C18 diacid-γGlu-AEEA-AEEA}-YKGAQEKGLSKGCFGLKLDRIGSLSGLGC-OH; disulfide 13-29; C-terminus assumed), it took 1.63 nM to reach a half-maximal effect (EC50) and the “hNPR2 0% HSA. [EC50% rel CNP]” value came to 16.0%.
Take `CC[C@H](C)[C@@H]1NC(=O)[C@H](CCCNC(=N)N)NC(=O)[C@H](CC(=O)O)NC(=O)[C@H](CC(C)C)NC(=O)[C@@H]2CCCN2C(=O)[C@H](CC(C)C)NC(=O)CNC(=O)[C@H](Cc2ccccc2)NC(=O)[C@@H](NC(=O)CNC(=O)[C@H](CCC(N)=O)NC(=O)[C@H](CO)NC(=O)CNC(=O)CNC(=O)[C@H](CCCCN)NC(=O)[C@H](CCCCN)NC(=O)[C@H](CCC(N)=O)NC(=O)[C@H](C)NC(=O)CNC(=O)[C@H](CCCCN)NC(=O)[C@H](Cc2ccc(O)cc2)NC(=O)[C@H](CCCCN)NC(=O)[C@H](Cc2c[nH]cn2)NC(=O)[C@H](C)NC(=O)[C@H](CCC(N)=O)NC(=O)[C@@H]2CCCN2C(=O)[C@H](Cc2c[nH]cn2)NC(=O)[C@H](CCC(=O)O)NC(=O)[C@H](CCC(N)=O)NC(=O)COCCOCCNC(=O)COCCOCCNC(=O)CC[C@H](NC(=O)CC[C@H](NC(=O)CC[C@H](NC(=O)CC[C@H](NC(=O)CCCCCCCCCCCCCCCCC(=O)O)C(=O)O)C(=O)O)C(=O)O)C(=O)O)CSSC[C@@H](C(=O)O)NC(=O)CNC(=O)[C@H](CC(C)C)NC(=O)CNC(=O)[C@H](CO)NC(=O)[C@H](CC(C)C)NC(=O)[C@H](CO)NC(=O)CNC1=O` [compound 1400] ({C18 diacid-γGlu-γGlu-γGlu-γGlu-AEEA-AEEA}-QEHPQAHKYKGAQKKGGSQGCFGLPLDRIGSLSGLGC-OH; disulfide 21-37): the “hNPR2 0% HSA. [EC50% rel CNP]” value was determined as 85.3%.
Still for that read-out and setting: the figure for `CC[C@H](C)[C@@H]1NC(=O)[C@H](CCCNC(=N)N)NC(=O)[C@H](CC(=O)O)NC(=O)[C@H](CC(C)C)NC(=O)[C@@H]2CCCN2C(=O)[C@H](CC(C)C)NC(=O)CNC(=O)[C@H](Cc2ccccc2)NC(=O)[C@@H](NC(=O)CNC(=O)[C@H](CCC(N)=O)NC(=O)[C@H](CO)NC(=O)[C@H](CC(C)C)NC(=O)CNC(=O)[C@H](CCCCN)NC(=O)[C@H](CCCCN)NC(=O)[C@H](CC(N)=O)NC(=O)[C@H](C)NC(=O)CNC(=O)[C@H](CCCCN)NC(=O)[C@H](Cc2ccc(O)cc2)NC(=O)[C@H](CCCCN)NC(=O)[C@H](CCCNC(=N)N)NC(=O)[C@H](C)NC(=O)COCCOCCNC(=O)COCCOCCNC(=O)COCCOCCNC(=O)COCCOCCNC(=O)CC[C@H](NC(=O)CC[C@H](NC(=O)CC[C@H](NC(=O)CC[C@H](NC(=O)CC[C@H](NC(=O)CCCCCCCCCCCCCCCCC(=O)O)C(=O)O)C(=O)O)C(=O)O)C(=O)O)C(=O)O)CSSC[C@@H](C(=O)O)NC(=O)CNC(=O)[C@H](CC(C)C)NC(=O)CNC(=O)[C@H](CO)NC(=O)[C@H](CC(C)C)NC(=O)[C@H](CO)NC(=O)CNC1=O` [compound 1464] ({C18 diacid-γGlu-γGlu-γGlu-γGlu-γGlu-AEEA-AEEA-AEEA-AEEA}-ARKYKGANKKGLSQGCFGLPLDRIGSLSGLGC-OH; disulfide 16-32; C-terminus assumed) is 48.8%.
For `CC[C@H](C)[C@@H]1NC(=O)[C@H](CCCNC(=N)N)NC(=O)[C@H](CC(=O)O)NC(=O)[C@H](CC(C)C)NC(=O)[C@H](CCCCN)NC(=O)[C@H](CC(C)C)NC(=O)CNC(=O)[C@H](Cc2ccccc2)NC(=O)[C@@H](NC(=O)CNC(=O)[C@H](CCCCN)NC(=O)[C@H](CO)NC(=O)[C@H](CC(C)C)NC(=O)CNC(=O)[C@H](CCCCN)NC(=O)[C@H](CCCCN)NC(=O)[C@H](CCC(N)=O)NC(=O)[C@H](C)NC(=O)CNC(=O)[C@H](Cc2c[nH]cn2)NC(=O)[C@H](CCC(=O)O)NC(=O)COCCOCCNC(=O)COCCOCCNC(=O)COCCOCCNC(=O)CC[C@H](NC(=O)CC[C@H](NC(=O)CCCCCCCCCCCCCCCCC(=O)O)C(=O)O)C(=O)O)CSSC[C@@H](C(=O)O)NC(=O)CNC(=O)[C@H](CC(C)C)NC(=O)CNC(=O)[C@H](CO)NC(=O)[C@H](CC(C)C)NC(=O)[C@H](CO)NC(=O)CNC1=O` [compound 1357], the EC50 came to 2.53 nM and the “hNPR2 0% HSA. [EC50% rel CNP]” value is on record as 4.3%.
In the case of `CC[C@H](C)[C@@H]1NC(=O)[C@H](CCCNC(=N)N)NC(=O)[C@H](CC(=O)O)NC(=O)[C@H](CC(C)C)NC(=O)[C@@H]2CCCN2C(=O)[C@H](CC(C)C)NC(=O)CNC(=O)[C@H](Cc2ccccc2)NC(=O)[C@@H](NC(=O)CNC(=O)[C@H](CCCCN)NC(=O)[C@H](CO)NC(=O)[C@H](CC(C)C)NC(=O)CNC(=O)[C@H](CCCCN)NC(=O)[C@H](CCCCN)NC(=O)[C@H](CCC(N)=O)NC(=O)[C@H](C)NC(=O)CNC(=O)[C@H](CCCCN)NC(=O)[C@H](Cc2ccc(O)cc2)NC(=O)[C@H](CCCCN)NC(=O)[C@H](CCCNC(=N)N)NC(=O)[C@H](C)NC(=O)COCCOCCNC(=O)COCCOCCNC(=O)COCCOCCNC(=O)COCCOCCNC(=O)CC[C@H](NC(=O)CC[C@H](NC(=O)CC[C@H](NC(=O)CC[C@H](NC(=O)CC[C@H](NC(=O)CCCCCCCCCCCCCCCCC(=O)O)C(=O)O)C(=O)O)C(=O)O)C(=O)O)C(=O)O)CSSC[C@@H](C(=O)O)NC(=O)CNC(=O)[C@H](CC(C)C)NC(=O)CNC(=O)[C@H](CO)NC(=O)[C@H](CC(C)C)NC(=O)[C@H](CO)NC(=O)CNC1=O` [compound 1462] ({C18 diacid-γGlu-γGlu-γGlu-γGlu-γGlu-AEEA-AEEA-AEEA-AEEA}-ARKYKGAQKKGLSKGCFGLPLDRIGSLSGLGC-OH; disulfide 16-32), the “hNPR2 0% HSA. [EC50% rel CNP]” value came to 106.6%.
As for `CC[C@H](C)[C@@H]1NC(=O)[C@H](CCCNC(=N)N)NC(=O)[C@H](CC(=O)O)NC(=O)[C@H](CC(C)C)NC(=O)[C@@H]2CCCN2C(=O)[C@H](CC(C)C)NC(=O)CNC(=O)[C@H](Cc2ccccc2)NC(=O)[C@@H](NC(=O)CNC(=O)[C@H](CCCCN)NC(=O)[C@H](CO)NC(=O)CNC(=O)CNC(=O)[C@H](CCCCN)NC(=O)[C@H](CCCCN)NC(=O)[C@H](CCC(N)=O)NC(=O)[C@H](C)NC(=O)CNC(=O)[C@H](CCC(=O)O)NC(=O)[C@H](Cc2ccc(O)cc2)NC(=O)COCCOCCNC(=O)COCCOCCNC(=O)COCCOCCNC(=O)COCCOCCNC(=O)CC[C@H](NC(=O)CCCCCCCCCCCCCCCCC(=O)O)C(=O)O)CSSC[C@@H](C(=O)O)NC(=O)CNC(=O)[C@H](CC(C)C)NC(=O)CNC(=O)[C@H](CO)NC(=O)[C@H](CC(C)C)NC(=O)[C@H](CO)NC(=O)CNC1=O` [compound 1391] ({C18 diacid-γGlu-AEEA-AEEA-AEEA-AEEA}-YEGAQKKGGSKGCFGLPLDRIGSLSGLGC-OH; disulfide 13-29), the “hNPR2 0% HSA. [EC50% rel CNP]” value turned out to be 37.9%.

(Values after US20240209028A1, “CNP COMPOUNDS” (priority 2022, published 2024).)
